As a reminder, the MIC is the lowest concentration found to suppress growth.

Where a name gives a salt, the structure may show the parent alone.

The test system of the test is Mycobacterium tuberculosis H37Rv. Kind of test: Mycobacterium tuberculosis H37Rv Inhibition Assay (resazurin fluorescence). The class given is cell-based. The following applies: ATCC 25618 / H37Rv, read-out: MIC value, H37Rv strain (ATCC25618), Middlebrook 7H9+ADC, six days at 37° C., resazurin read after 48 hours. (Resazurin is reduced to fluorescent resorufin, in cell work by metabolically active cells.)
As to `O=c1ccc2ccc(F)c3c2n1[C@H](CN1CC[C@H](NCc2cc4c(cn2)OCCO4)[C@H](O)C1)CO3` [Example 20, (3R)-3-({(3R,4S)-4-[(2,3-Dihydro[1,4]dioxino[2,3-c]pyridin-7-ylmethyl)amino]-3-hydroxy-1-piperidinyl}methyl)-10-fluoro-2,3-dihydro-5H-[1,4]oxazino[2,3,4-ij]quinolin-5-one dihydrochloride], the MIC is at most 2.8 µg/mL. Under `O=c1ccc2ncc(F)c3c2n1[C@H](CN1CC[C@H](NCc2cc4c(cn2)OCCO4)[C@H](O)C1)CC3` [Example 30, 6-({(3R,4S)-4-[(2,3-dihydro[1,4]dioxino[2,3-c]pyridin-7-ylmethyl)amino]-3-hydroxy-1-piperidinyl}methyl)-3-fluoro-5,6-dihydro-4H,8H-pyrido[3,2,1-de]-1,5-naphthyridin-8-one dihydrochloride] stands at most 2.8 µg/mL.

For `O=C(O)c1ccccc1.O=c1ccc2ncc(F)c3c2n1[C@H](CN1CCC(NCc2cc4c(nn2)OCCS4)CC1)CO3` [Example 48, (6R)-6-({4-[(6,7-dihydro[1,4]oxathiino[2,3-c]pyridazin-3-ylmethyl)amino]-1-piperidinyl}methyl)-3-fluoro-5,6-dihydro-8H-[1,4]oxazino[2,3,4-de]-1,5-naphthyridin-8-one benzoate], the MIC was at most 2.8 µg/mL.

Source of the values: patent publication US20100087424A1, “TRICYCLIC NITROGEN CONTAINING HETEROCYCLES AS ANTIBACTERIAL AGENTS” (Glaxo Group Limited, priority 2007, published 2010).
